Experimental findings from the supplement of paper PMC12463676, “Small-molecule dissolution of stress granules by redox modulation benefits ALS models” (Nature Chemical Biology, 2025) are described below.

Compound in one assay: NC(=O)CCCCC1CCSS1 [lipoamide]
Briefly: thermal stability z-score vs DMSO; higher = more thermally stabilized by treatment. The following applies: HeLa, lipoamide concentration 100 µM. Here is the method:
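Cellular thermal proteome profiling in HeLa cells. Cells were treated with 100 µM lipoamide for 1 h, with or without 1 mM arsenate for a further 1 h, then heated to ten temperatures (37-66.3 °C), and soluble protein was quantified by TMT mass spectrometry relative to 0.1% DMSO controls. The thermal stability score (sum of log2 fold changes minus the abundance score) was transformed to a z-score; mean of n = 3 experiments.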

Compound in another assay: O=[As]([O-])(O)O.[K+] [potassium arsenate]
The description is as above. The following applies: HeLa; arsenate concentration 1 mM. Here is the method:
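Cellular thermal proteome profiling in HeLa cells treated with 1 mM arsenate for 1 h (DMSO pretreatment), heated to ten temperatures (37-66.3 °C). Soluble protein was quantified by TMT mass spectrometry relative to DMSO controls; the thermal stability score was transformed to a z-score; mean of n = 3 experiments.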

Setting [1] is: arsenate co-treatment: 1 mM arsenate 1 h.
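Note: each temperature applied for 3 min, abundance score taken as mean log2 fold change at the two lowest temperatures, z-score obtained by mean subtraction and division by SD.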

Chain of UniProt Q9H1A4 (Q9H1A4 whole entry): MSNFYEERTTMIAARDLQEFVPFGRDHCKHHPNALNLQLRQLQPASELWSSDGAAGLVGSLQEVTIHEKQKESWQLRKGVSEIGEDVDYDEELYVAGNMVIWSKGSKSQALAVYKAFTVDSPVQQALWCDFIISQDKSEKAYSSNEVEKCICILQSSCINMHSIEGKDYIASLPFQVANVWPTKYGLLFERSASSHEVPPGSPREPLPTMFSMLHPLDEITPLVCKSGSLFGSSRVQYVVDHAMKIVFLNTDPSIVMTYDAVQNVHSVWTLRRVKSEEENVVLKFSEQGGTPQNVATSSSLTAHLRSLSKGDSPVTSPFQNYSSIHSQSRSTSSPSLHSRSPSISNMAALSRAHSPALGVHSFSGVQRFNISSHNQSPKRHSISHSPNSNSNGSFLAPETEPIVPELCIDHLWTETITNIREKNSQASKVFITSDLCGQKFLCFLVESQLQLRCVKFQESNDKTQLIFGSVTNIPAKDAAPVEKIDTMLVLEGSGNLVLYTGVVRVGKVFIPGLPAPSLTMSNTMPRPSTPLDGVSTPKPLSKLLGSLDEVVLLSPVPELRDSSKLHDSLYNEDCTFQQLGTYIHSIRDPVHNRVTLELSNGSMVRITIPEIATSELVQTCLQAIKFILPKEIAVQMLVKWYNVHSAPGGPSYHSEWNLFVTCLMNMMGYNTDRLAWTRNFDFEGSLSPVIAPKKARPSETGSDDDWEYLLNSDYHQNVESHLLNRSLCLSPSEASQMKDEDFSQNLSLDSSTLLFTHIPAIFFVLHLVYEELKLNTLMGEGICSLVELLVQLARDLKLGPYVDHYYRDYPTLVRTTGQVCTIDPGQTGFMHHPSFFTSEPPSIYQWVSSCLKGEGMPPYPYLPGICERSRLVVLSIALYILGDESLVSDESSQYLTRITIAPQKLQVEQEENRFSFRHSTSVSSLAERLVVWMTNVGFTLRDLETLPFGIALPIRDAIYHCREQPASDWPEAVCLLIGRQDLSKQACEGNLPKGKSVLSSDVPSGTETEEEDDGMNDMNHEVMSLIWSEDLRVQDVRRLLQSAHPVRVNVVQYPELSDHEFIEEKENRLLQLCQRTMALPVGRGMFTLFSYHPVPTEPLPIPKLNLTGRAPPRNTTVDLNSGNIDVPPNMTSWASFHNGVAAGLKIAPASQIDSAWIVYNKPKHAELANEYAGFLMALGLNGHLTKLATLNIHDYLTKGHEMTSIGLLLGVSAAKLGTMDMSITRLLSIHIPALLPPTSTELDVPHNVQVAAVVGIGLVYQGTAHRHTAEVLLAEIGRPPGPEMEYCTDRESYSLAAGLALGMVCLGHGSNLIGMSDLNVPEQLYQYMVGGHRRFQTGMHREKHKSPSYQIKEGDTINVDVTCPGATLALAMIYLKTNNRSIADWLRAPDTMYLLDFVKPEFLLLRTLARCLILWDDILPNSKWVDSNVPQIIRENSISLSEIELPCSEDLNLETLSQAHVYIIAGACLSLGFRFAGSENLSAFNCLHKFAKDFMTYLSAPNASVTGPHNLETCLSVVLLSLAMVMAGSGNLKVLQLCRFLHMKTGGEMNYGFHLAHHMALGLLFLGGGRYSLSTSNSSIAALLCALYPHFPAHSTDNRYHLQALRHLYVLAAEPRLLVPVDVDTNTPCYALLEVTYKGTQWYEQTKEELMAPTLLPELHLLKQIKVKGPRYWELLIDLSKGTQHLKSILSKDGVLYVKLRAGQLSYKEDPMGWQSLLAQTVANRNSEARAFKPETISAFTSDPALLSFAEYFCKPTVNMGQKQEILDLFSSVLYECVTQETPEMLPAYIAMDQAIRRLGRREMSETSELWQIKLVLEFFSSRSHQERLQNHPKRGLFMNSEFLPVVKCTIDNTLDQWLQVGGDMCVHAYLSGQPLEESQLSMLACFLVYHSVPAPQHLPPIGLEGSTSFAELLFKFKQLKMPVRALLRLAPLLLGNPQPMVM
Chain of UniProt Q96RT1 (Q96RT1 whole entry): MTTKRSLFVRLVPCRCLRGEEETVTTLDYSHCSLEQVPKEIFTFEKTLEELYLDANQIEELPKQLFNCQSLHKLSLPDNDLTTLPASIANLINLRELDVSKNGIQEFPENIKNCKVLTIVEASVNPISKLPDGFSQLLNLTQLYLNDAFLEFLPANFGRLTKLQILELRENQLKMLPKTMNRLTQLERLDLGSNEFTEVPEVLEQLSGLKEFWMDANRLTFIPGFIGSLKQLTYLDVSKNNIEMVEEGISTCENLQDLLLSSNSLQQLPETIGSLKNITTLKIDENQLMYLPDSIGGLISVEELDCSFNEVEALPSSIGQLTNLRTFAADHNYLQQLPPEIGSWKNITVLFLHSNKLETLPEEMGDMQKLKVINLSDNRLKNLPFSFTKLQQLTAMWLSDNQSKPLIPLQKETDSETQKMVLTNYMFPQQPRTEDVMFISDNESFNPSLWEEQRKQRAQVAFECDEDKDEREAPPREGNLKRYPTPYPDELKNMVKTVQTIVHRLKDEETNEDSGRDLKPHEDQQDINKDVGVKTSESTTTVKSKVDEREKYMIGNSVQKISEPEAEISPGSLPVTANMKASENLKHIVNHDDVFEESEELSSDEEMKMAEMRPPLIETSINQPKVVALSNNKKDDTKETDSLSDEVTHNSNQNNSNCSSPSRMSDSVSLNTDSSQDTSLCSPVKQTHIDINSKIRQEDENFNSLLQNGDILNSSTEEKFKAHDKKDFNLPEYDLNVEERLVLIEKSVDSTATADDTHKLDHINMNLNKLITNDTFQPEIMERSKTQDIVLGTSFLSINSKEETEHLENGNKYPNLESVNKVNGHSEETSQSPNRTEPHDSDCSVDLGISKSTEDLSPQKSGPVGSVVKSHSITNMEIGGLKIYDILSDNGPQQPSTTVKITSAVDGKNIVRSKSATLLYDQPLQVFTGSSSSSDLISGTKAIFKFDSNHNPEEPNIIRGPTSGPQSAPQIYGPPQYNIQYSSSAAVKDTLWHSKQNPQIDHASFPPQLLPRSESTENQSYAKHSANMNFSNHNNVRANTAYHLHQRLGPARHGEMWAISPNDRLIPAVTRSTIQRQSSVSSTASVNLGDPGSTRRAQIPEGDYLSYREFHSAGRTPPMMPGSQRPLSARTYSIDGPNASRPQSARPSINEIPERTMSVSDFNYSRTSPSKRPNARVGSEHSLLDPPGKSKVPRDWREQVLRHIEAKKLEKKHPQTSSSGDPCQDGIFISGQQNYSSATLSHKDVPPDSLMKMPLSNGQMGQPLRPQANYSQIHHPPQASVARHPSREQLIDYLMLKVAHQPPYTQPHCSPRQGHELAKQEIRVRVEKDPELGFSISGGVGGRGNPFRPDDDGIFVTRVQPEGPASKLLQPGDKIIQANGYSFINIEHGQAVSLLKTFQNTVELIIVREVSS
Chain of UniProt Q5T8I9 (Q5T8I9 whole entry): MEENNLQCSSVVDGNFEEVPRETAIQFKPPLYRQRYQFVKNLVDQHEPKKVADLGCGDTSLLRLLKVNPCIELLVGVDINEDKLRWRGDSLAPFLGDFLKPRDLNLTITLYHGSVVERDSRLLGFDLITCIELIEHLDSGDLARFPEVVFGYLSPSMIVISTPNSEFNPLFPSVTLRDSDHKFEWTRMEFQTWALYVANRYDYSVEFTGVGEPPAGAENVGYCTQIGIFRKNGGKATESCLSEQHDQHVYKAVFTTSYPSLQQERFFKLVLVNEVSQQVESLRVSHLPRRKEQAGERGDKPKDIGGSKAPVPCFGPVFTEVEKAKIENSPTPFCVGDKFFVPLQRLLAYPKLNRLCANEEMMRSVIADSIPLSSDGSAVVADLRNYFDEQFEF
Chain of UniProt O43734 (O43734 whole entry): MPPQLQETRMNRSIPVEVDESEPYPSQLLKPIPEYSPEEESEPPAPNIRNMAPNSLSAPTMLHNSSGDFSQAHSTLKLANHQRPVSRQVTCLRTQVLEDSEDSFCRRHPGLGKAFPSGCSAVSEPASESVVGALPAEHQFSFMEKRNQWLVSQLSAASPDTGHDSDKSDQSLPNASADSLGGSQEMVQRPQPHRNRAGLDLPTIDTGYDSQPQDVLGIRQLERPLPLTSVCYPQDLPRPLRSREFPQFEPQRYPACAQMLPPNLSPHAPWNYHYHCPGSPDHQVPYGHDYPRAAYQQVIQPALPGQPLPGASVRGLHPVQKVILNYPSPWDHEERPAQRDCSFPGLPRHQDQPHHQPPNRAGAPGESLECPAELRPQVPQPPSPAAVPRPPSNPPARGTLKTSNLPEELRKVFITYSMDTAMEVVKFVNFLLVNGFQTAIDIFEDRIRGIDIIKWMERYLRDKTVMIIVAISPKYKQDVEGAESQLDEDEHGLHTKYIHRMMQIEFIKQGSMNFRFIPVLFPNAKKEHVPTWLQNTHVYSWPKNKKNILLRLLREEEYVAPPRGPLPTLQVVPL
Chain of UniProt P04003 (P04003 whole entry): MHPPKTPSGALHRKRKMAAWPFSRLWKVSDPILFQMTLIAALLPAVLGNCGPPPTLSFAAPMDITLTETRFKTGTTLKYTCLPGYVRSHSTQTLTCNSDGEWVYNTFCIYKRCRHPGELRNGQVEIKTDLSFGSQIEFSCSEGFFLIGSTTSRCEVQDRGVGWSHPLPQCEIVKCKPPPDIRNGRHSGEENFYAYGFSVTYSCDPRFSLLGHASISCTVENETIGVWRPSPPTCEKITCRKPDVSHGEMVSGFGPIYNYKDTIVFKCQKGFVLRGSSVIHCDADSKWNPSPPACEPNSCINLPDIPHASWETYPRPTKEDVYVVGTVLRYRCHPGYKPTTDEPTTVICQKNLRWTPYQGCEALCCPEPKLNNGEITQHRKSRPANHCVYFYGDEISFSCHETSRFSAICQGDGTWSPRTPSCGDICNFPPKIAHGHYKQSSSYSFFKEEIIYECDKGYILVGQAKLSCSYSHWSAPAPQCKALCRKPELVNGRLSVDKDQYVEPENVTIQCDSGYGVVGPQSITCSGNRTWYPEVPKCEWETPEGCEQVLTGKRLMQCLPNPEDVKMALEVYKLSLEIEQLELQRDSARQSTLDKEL
Chain of UniProt P41223 (P41223 whole entry): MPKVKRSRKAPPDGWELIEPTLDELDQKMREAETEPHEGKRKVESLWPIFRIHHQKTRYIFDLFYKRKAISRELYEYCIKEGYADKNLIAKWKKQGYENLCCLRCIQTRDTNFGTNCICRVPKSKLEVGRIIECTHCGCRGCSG

As to MED6 (UniProt O75586), the thermal stability z-score came out at 0.171 with lipoamide (setting [1]), 0.0477 with lipoamide (arsenate co-treatment: none) and 0.00858 with potassium arsenate.

As for DLD (UniProt P09622), the thermal stability z-score is 0.662 in the assay with lipoamide (setting [1]), 1.04 in the assay with lipoamide (arsenate co-treatment: none) and -0.681 in the assay with potassium arsenate.

For the target RAB23 (UniProt Q9ULC3), the thermal stability z-score with lipoamide (setting [1]) was 0.712; with lipoamide (arsenate co-treatment: none) it was 0.437; with potassium arsenate it was -0.626.

On to PTER (UniProt Q96BW5), for which the thermal stability z-score was -0.116 with lipoamide (setting [1]), -0.966 with lipoamide (arsenate co-treatment: none) and -0.311 in the assay with potassium arsenate.

SSR4 (UniProt P51571): the values for the thermal stability z-score with lipoamide (setting [1]), with lipoamide (arsenate co-treatment: none) and with potassium arsenate were -1.7, -1.43 and -0.649, respectively.

As to CRIP2 (UniProt P52943), the thermal stability z-score with lipoamide (setting [1]) was -0.0467; with lipoamide (arsenate co-treatment: none), 0.146; with potassium arsenate, -0.637.

Regarding PARP4 (UniProt Q9UKK3), the thermal stability z-score with lipoamide (setting [1]) is 0.157; in the assay with lipoamide (arsenate co-treatment: none), -0.044; in the assay with potassium arsenate, 0.742.

Turning to ASNS (UniProt P08243), the thermal stability z-score was 1.69 with lipoamide (setting [1]), 0.131 in the assay with lipoamide (arsenate co-treatment: none) and -0.303 with potassium arsenate.

For the target RSRC2 (UniProt Q7L4I2), the thermal stability z-score stood at 0.668 with lipoamide (setting [1]), 0.164 in the assay with lipoamide (arsenate co-treatment: none) and 1.03 with potassium arsenate.

Regarding TRIM65 (UniProt Q6PJ69), the thermal stability z-score with lipoamide (setting [1]) was -0.203; with lipoamide (arsenate co-treatment: none), -0.225; with potassium arsenate, -0.189.

With MCM4 (UniProt P33991), the figures for the thermal stability z-score with lipoamide (setting [1]), with lipoamide (arsenate co-treatment: none) and with potassium arsenate were -0.472, -0.0478 and -0.472, respectively.

As to KIF2C (UniProt Q99661), the values for the thermal stability z-score with lipoamide (setting [1]), with lipoamide (arsenate co-treatment: none) and with potassium arsenate were -0.47, -0.0787 and 0.56, respectively.

For BUD31 (UniProt P41223), the thermal stability z-score was 0.0866 with lipoamide (setting [1]), 0.568 in the assay with lipoamide (arsenate co-treatment: none) and -3.38 in the assay with potassium arsenate.

With C4BPA (UniProt P04003), the thermal stability z-score with lipoamide (setting [1]) was -5.7; in the assay with lipoamide (arsenate co-treatment: none) it was -5.12; in the assay with potassium arsenate, 1.08.

Take CYFIP1 (UniProt Q7L576): the thermal stability z-score in the assay with lipoamide (setting [1]) is -0.422; with lipoamide (arsenate co-treatment: none) it was -0.325; with potassium arsenate, -1.67.

As to SRPRB (UniProt Q9Y5M8), the values for the thermal stability z-score with lipoamide (setting [1]), in the assay with lipoamide (arsenate co-treatment: none) and in the assay with potassium arsenate were -0.411, 0.511 and 1.49, respectively.

As for MTX1 (UniProt Q13505), the thermal stability z-score with lipoamide (setting [1]) was -0.275; with lipoamide (arsenate co-treatment: none), 0.061; in the assay with potassium arsenate, 0.421.

MOCS3 (UniProt O95396): the results for the thermal stability z-score in the assay with lipoamide (setting [1]), with lipoamide (arsenate co-treatment: none) and with potassium arsenate were 0.01, -0.0171 and -0.0988, respectively.

Take TST (UniProt Q16762): the figures for the thermal stability z-score in the assay with lipoamide (setting [1]), with lipoamide (arsenate co-treatment: none) and with potassium arsenate were 0.729, -0.00911 and 1, respectively.

Turning to CCNK (UniProt O75909), the thermal stability z-score with lipoamide (setting [1]) was 0.743; with lipoamide (arsenate co-treatment: none) it was -0.222; with potassium arsenate, -0.771.

For EIF4G3 (UniProt O43432), the thermal stability z-score is -0.341 with lipoamide (setting [1]), 0.15 in the assay with lipoamide (arsenate co-treatment: none) and 0.0581 with potassium arsenate.

In the case of DDX55 (UniProt Q8NHQ9), the thermal stability z-score came to 0.693 with lipoamide (setting [1]), 0.58 with lipoamide (arsenate co-treatment: none) and 0.0246 with potassium arsenate.

For ATXN2 (UniProt Q99700), the thermal stability z-score with lipoamide (setting [1]) was 0.168; with lipoamide (arsenate co-treatment: none) it was 0.133; with potassium arsenate, -0.245.

For SYDE1 (UniProt Q6ZW31), the thermal stability z-score is -0.177 in the assay with lipoamide (setting [1]), -0.208 in the assay with lipoamide (arsenate co-treatment: none) and -0.278 with potassium arsenate.

As for TRMT112 (UniProt Q9UI30), the thermal stability z-score with lipoamide (setting [1]) was 0.215; with lipoamide (arsenate co-treatment: none), -0.0845; in the assay with potassium arsenate it was -0.0169.

Regarding TRAF3IP2 (UniProt O43734), the thermal stability z-score with lipoamide (setting [1]) is -0.106; in the assay with lipoamide (arsenate co-treatment: none) it was -0.159; with potassium arsenate, -0.155.

HENMT1 (UniProt Q5T8I9): the figures for the thermal stability z-score with lipoamide (setting [1]), with lipoamide (arsenate co-treatment: none) and with potassium arsenate were -0.37, -0.0316 and 0.197, respectively.

With PLBD2 (UniProt Q8NHP8), the thermal stability z-score in the assay with lipoamide (setting [1]) was -0.0663; with lipoamide (arsenate co-treatment: none) it was 0.0581; with potassium arsenate, 0.464.

Turning to ATN1 (UniProt P54259), the thermal stability z-score with lipoamide (setting [1]) was found to be 0.566; in the assay with lipoamide (arsenate co-treatment: none), 0.784; with potassium arsenate, 0.759.

Take ADAT2 (UniProt Q7Z6V5): the results for the thermal stability z-score with lipoamide (setting [1]), in the assay with lipoamide (arsenate co-treatment: none) and in the assay with potassium arsenate were -0.663, -0.376 and -0.708, respectively.

Regarding BRD3 (UniProt Q15059), the thermal stability z-score is 0.0121 in the assay with lipoamide (setting [1]), -0.107 in the assay with lipoamide (arsenate co-treatment: none) and -0.279 with potassium arsenate.

As to TMEM33 (UniProt P57088), the thermal stability z-score is -0.0206 in the assay with lipoamide (setting [1]), -1.12 with lipoamide (arsenate co-treatment: none) and 0.972 with potassium arsenate.

On to RPL23A (UniProt P62750), for which the thermal stability z-score was -0.321 with lipoamide (setting [1]), -0.341 with lipoamide (arsenate co-treatment: none) and -1.49 with potassium arsenate.

Consider INTS4 (UniProt Q96HW7), for which the thermal stability z-score in the assay with lipoamide (setting [1]) was 1.08; in the assay with lipoamide (arsenate co-treatment: none), 1.34; with potassium arsenate, -0.0059.

As for OLA1 (UniProt Q9NTK5), the thermal stability z-score with lipoamide (setting [1]) is 0.522; in the assay with lipoamide (arsenate co-treatment: none) it was 0.49; with potassium arsenate it was -0.463.

For the target NAA30 (UniProt Q147X3), the results for the thermal stability z-score in the assay with lipoamide (setting [1]), with lipoamide (arsenate co-treatment: none) and in the assay with potassium arsenate were -0.282, 0.317 and -0.43, respectively.

Take TBL2 (UniProt Q9Y4P3): the thermal stability z-score was -0.257 with lipoamide (setting [1]), 0.0669 in the assay with lipoamide (arsenate co-treatment: none) and 0.366 with potassium arsenate.

Consider NUDT1 (UniProt P36639), for which the thermal stability z-score in the assay with lipoamide (setting [1]) is 0.505; with lipoamide (arsenate co-treatment: none), 0.0984; with potassium arsenate, -0.00492.

Turning to UBQLN1 (UniProt Q9UMX0), the values for the thermal stability z-score in the assay with lipoamide (setting [1]), in the assay with lipoamide (arsenate co-treatment: none) and with potassium arsenate were 2.04, 2.04 and 0.778, respectively.

Consider ANAPC1 (UniProt Q9H1A4), for which the thermal stability z-score in the assay with lipoamide (setting [1]) was determined as 0.11; with lipoamide (arsenate co-treatment: none), 0.139; with potassium arsenate, 0.0453.

With ERBB2IP (UniProt Q96RT1), the thermal stability z-score was 0.354 in the assay with lipoamide (setting [1]), -0.307 with lipoamide (arsenate co-treatment: none) and -1.94 in the assay with potassium arsenate.

For the target ASPSCR1 (UniProt Q9BZE9), the figures for the thermal stability z-score with lipoamide (setting [1]), with lipoamide (arsenate co-treatment: none) and in the assay with potassium arsenate were 0.207, -0.218 and -0.304, respectively.
